From patent US7994360B2, “Benzofuran compounds” (XTL Biopharmaceuticals Ltd., priority 2005, dated 2011)
pIC50: −log10 of the molar value.

Legend:
[1] = test system: HCV Replicon (HCV IRES driven luciferase reporter) in Huh-Luc-Neo cells; test: HCV Replicon Luciferase Assay; conditions: Hepatitis C virus, 48 h, read-out: Luciferase IC50
Huh-Luc-Neo cells = test: CellTiter-Glo Cell Viability Assay; assay type: cell-based, human; conditions: inhibition of cell viability; for Toxicity % Inhibition at 50uM (2 doses): conditions identical to Replicon RNA assay; for Toxicity % Inhibition at 100 uM (1 dose): conditions identical to Luciferase assay (48 h)
[2] = test system: HCV Replicon (HCV RNA) in Huh-Luc-Neo cells; test: HCV Replicon RNA Assay (Taqman quantitative PCR of HCV RNA); assay type: cell-based; conditions: Hepatitis C virus, compound added day 0 and day 1, HCV RNA by quantitative PCR, no unit printed in table (text gives hit threshold in μM)
Description: Day 2, RNA Isolation and cDNA Synthesis: The cells are washed with 1× Phosphate Buffered Saline (PBS) once.

SMILES | pIC50 [1] | Toxicity % Inhibition at 50uM (2 doses) (Huh-Luc-Neo cells) | Toxicity % Inhibition at 100 uM (1 dose) (Huh-Luc-Neo cells) | IC50 [2]
CC(=O)c1ccc(-c2c(-c3ccccc3Cl)oc3c(C#Cc4ccccc4Cl)cc(CO)cc23)cc1 [VQ–36165] | 5.29 | 5.7% | 10.5% | 1.31 µM
CC(=O)c1ccc(-c2c(-c3ccccc3C(F)(F)F)oc3c(C#Cc4ccccc4Cl)cc(CO)cc23)cc1 [VQ–36167] | 4.91 | 20.2% | 33.2% | 1.61 µM
